We go through five compounds from patent publication US4397842A, “Peptides having thymopoietin-like activity” (Ortho Pharmaceutical Corporation, priority 1981, dated 1983).

One test has as its system prothymocytes. Kind of test: induction in vitro of Thy-1+ T cell differentiation (Komuro and Boyse), acquisition of Thy-1.2 as marker. Type of test: cell-based, nu/nu mice. As to conditions: for biological activity compared with the pentapeptide prepared in Example I: qualitative statement. The procedure:
(§1) To determine the activity and characteristics of the polypeptide of Example I, determinations were carried out on healthy 5-6 week nu/nu mice of both sexes, the mice being bred on a BALB/c background (thymocytes expressing Thy-1.2 surface antigen) and maintained under conventional conditions. For the antisera, anti Thy-1.2 sera were prepared in Thy-1 congenic mice.
(§2) For the induction in vitro of Thy-1^+ T cells or CR^+ B cell differentiation, the induction of thymocyte differentiation from prothymocytes in vitro was performed as described by Komuro and Boyse, (Lancet, 1, 740, 1973), using the acquisition of Thy-1.2 as a marker of T cell differentation. The induction of CR^+ B cell differentiation from CR^- B cell precursors in vitro was performed under similar conditions using as the assay criterion, the capacity of CR^+ B cells to bind sheep erythrocytes coated with subagglutinating quantities of rabbit antibody and nonlytic complement. Spleen cell populations from healthy nu/nu mice fractionated on discontinuous bovine serum albumin gradients were used as the source of both precursor types (Thy-1^- and CR^-) because they have few or no Thy-1^+ cells and low numbers of CR^+ cells.

The subject of a further test is CR^- B cell precursors. Kind of test: induction in vitro of CR+ B cell differentiation from CR- B cell precursors. Type of test: cell-based, nu/nu mice. Conditions: same concentrations as for T cell induction. The procedure:
as §1, §2

Non-standard residues stand in square brackets, D forms with d. Residues, ends and D or L forms follow the SMILES beside them. Sar = CNCC(=O)O

Consider `CN(CC(=O)N[C@@H](Cc1ccc(O)cc1)C(=O)O)C(=O)[C@H](CC(=O)O)NC(=O)[C@H](CCCCN)NC(=O)[C@@H](N)CCCNC(=N)N` [Example IVC, H--ARG--LYS--ASP--SAR--TYR--OH] (H-RKD[Sar]Y-OH), for which, in the test on prothymocytes, the “biological activity compared with the pentapeptide prepared in Example I” value was “same biological activity”.

`CC(C)[C@H](NC(=O)[C@H](CC(=O)O)NC(=O)CN(C)C(=O)[C@@H](N)CCCNC(=N)N)C(=O)N[C@@H](Cc1ccc(O)cc1)C(=O)O` [Example I, H--ARG--SAR--ASP--VAL--TYR--OH] (H-R[Sar]DVY-OH): in the test on CR^- B cell precursors, the “induction of differentiation of CR+ B cells” value is recorded as “did not induce”.

`CN(CC(=O)N[C@@H](Cc1ccc(O)cc1)C(N)=O)C(=O)[C@H](CC(=O)O)NC(=O)CN(C)C(=O)[C@@H](N)CCCNC(=N)N` [IVB, H--ARG--SAR--ASP--SAR--TYR--NH2] (H-R[Sar]D[Sar]Y-NH2): in the test with prothymocytes (assay of Example II), the “concentration at which peptide is active” value is 0.1 pg/mL. Moreover, in the test with prothymocytes, the “biological activity compared with the pentapeptide prepared in Example I” value is given as “same biological activity”.

On to `CN(CC(=O)N[C@@H](Cc1ccc(O)cc1)C(=O)O)C(=O)[C@H](CC(=O)O)NC(=O)CN(C)C(=O)[C@@H](N)CCCNC(=N)N` [IVA, H--ARG--SAR--ASP--SAR--TYR--OH] (H-R[Sar]D[Sar]Y-OH), for which the “biological activity compared with the pentapeptide prepared in Example I” value in the test with prothymocytes was “same biological activity”.

On to `CC(C)[C@H](NC(=O)[C@H](CC(=O)O)NC(=O)[C@@H](C)NC(=O)[C@@H](N)CCCNC(=N)N)C(=O)N[C@@H](Cc1ccc(O)cc1)C(=O)O` [III, H--ARG--D--ALA--ASP--VAL--TYR--OH] (H-R[dA]DVY-OH), for which the “biological activity compared with the pentapeptide prepared in Example I” value in the test with prothymocytes is on record as “same biological activity”.
